This assay concerns the target Kelch-like ECH-associated protein 1 (Homo sapiens) (UniProt Q14145). Description: thermal stabilisation of Keap1 Kelch domain – biophysical, thermal shift, RT-PCR instrument, dry powder, orthogonal assay for Keap1-Nrf2 interaction inhibitor project, dose response (AID 651829). The note with it: Recombinant Keap1 Kelch domain, Sypro Orange, top dose 38 µM, hits give high values.

Calls of active or inactive are those of the source.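 Rule for the calls: active = max delta Tm melting temperature shift above 1 degree C at some tested dose; inactive = the rest.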

Sequence of Kelch-like ECH-associated protein 1 (Homo sapiens) (Q14145 whole entry, looked up, the tested form may be a part): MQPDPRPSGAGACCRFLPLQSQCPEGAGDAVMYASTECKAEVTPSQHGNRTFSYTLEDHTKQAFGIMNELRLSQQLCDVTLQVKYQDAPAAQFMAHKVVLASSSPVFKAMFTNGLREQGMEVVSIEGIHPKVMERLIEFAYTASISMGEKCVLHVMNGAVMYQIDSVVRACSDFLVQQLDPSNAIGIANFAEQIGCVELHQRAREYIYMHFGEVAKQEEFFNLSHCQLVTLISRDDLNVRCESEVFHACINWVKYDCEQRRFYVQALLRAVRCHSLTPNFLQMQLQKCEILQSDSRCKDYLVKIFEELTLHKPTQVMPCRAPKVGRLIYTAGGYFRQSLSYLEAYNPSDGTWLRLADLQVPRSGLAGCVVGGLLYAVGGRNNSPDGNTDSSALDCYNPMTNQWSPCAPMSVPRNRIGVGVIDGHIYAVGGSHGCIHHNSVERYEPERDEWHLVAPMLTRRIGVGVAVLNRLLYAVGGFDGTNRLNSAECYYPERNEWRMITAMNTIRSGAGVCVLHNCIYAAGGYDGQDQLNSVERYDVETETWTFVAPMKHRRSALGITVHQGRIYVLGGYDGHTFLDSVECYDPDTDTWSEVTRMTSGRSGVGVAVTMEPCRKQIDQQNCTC

Regarding `O=C(O)[C@H]1CCCC[C@H]1C(=O)N1CCc2ccccc2[C@H]1CNS(=O)(=O)c1ccccc1`, the max delta Tm (at 38 µM) was 0.368 °C (inactive).
Take `O=C(O)C1CCCCC1C(=O)N1CCc2ccccc2C1c1ccccc1` (configuration not stated): the max delta Tm (at 1.2 µM) was -0.003 °C (inactive).
Take `Cc1ccc(S(=O)(=O)NC2=CC(=N[C@@H](C)C(=O)OC(C)(C)C)C(=O)c3ccccc32)c(C)c1`: where the note is “at 19.5 µM”, the max delta Tm was 0.3 °C (inactive).
Regarding `CCOC(=O)C(C(=O)OCC)c1cc(CNS(=O)(=O)c2ccc(C)cc2C)c2ccccc2n1`, the max delta Tm (at 0.3 µM) is 0.118 °C (inactive).
The same measure, in the same setting: the same measure for `Cc1ccc(S(=O)(=O)NNc2nc(C(C(=O)OC(C)C)C(=O)C(F)(F)F)nc3ccccc23)cc1` (configuration not stated): 0.2 °C (inactive).
For the molecule `O=C(O)C1CCCCC1C(=O)N1CCc2ccccc2C1CN1C(=O)Cc2ccccc2C1=O` (configuration not stated), the max delta Tm (at 38 µM) is 1.59 degrees C.
For `CC(=O)Nc1cc(NS(=O)(=O)c2c(C)cc(C)cc2C)c2ccccc2c1O`, the max delta Tm (at 5 µM) is 0.953 °C (inactive).
On to `CCOC(=O)C(C(=O)OCC)c1cc(CN2C(=O)c3ccccc3C2=O)c2ccccc2n1`, for which the max delta Tm (at 1.2 µM) is 0.127 °C (inactive).
For the molecule `O=C1c2ccccc2C(=O)N1C[C@@H]1c2ccccc2CCN1C(=O)C1CCCCC1`, for the setting “at 38 µM”, the max delta Tm was 0.208 °C (inactive).
As for `O=C(O)c1ccccc1C(=O)N1CCc2ccccc2C1CN1C(=O)c2ccccc2C1=O` (configuration not stated), for the setting “at 2.6 µM”, the max delta Tm is 0.017 °C (inactive).
For `Cc1ccc(S(=O)(=O)NC(=O)[C@@H]2c3ccccc3CCN2C(=O)[C@@H]2CCCC[C@@H]2C(=O)O)cc1`, the max delta Tm runs as follows: (at 0.3 µM) 0.155 °C (inactive); (at 38 µM) 2.68 degrees C.

(Values after PubChem BioAssay AID651829 (Broad Institute, 2012).)
